Data reported in patent US20070203091A1, “Methods and therapeutic compositions for improving liver, blood flow and skeletal muscle functions in advanced diseases and aging” (priority 2006, published 2007).
Entries after “also recorded” stand apart in the source; their conditions may differ. Read-outs that look alike come from different tables or passages of the source.

Legend:
[1] = Cachexia markers Part I: serum albumin, pre-albumin, C-Reactive Protein, Phase I study; format: in vivo, human; settings: for C-Reactive Protein, Change from Baseline, Mean / C-Reactive Protein, Change from Baseline, Median / C-Reactive Protein, Observed Values, Mean / C-Reactive Protein, Observed Values, Median / Pre-albumin, Change from Baseline, Mean / Pre-albumin, Change from Baseline, Median / Pre-albumin, Observed Values, Mean / Pre-albumin, Observed Values, Median / Serum Albumin, Change from Baseline, Mean / Serum Albumin, Change from Baseline, Median / Serum Albumin, Observed Values, Mean / Serum Albumin, Observed Values, Median: ITT
From the text: The data for albumin, LDH and Bilirubin support claims reciting improvement in liver function by claimed treatment of a human host in need thereof. Serum LDH levels are an established strong independent negative prognostic factor, inversely related to survival in a great variety of adverse clinical conditions. In advanced refractory cancers, high LDH and low Karnofsky's performance status are among the strongest established independent negative prognostic factors of survival and quality of life (29).

[2] = Stability of ATP drug product and infusion solution; format: physicochemical
Experimental: An example of a clinical procedure in the treatment of individuals in need thereof is as follows. After determination of baseline, pre-treatment vital signs, hemodynamic variables and blood chemistry, an ATP dose escalation procedure is initiated. ATP is provided as a sterile solution in single use vials. […] Storage of the clinical solution is at controlled refrigerated temperature (2° C.-6° C.). […] The concentration of the final sterile solution for the infusion is 8 mg/ml.
See attached AAI International Analytical Testing Report Aug. 2, 2001.

[3] = Safety and tolerability (NCI CTC version 2 toxicity grades) of ATP infusion, Phase I study; format: in vivo, human
Experimental: Two of the seven evaluable patients had advanced prostate cancer with bone metastases and one each had advanced mesothelioma, metastatic breast cancer, metastatic melanoma, metastatic colon cancer and renal cell carcinoma.
The 50 μg/kg/min dose could be reduced to 25 μg/kg/min if adverse effects occurred. […] Succeeding infusions in that patient were at the infusion dose tolerated at the end of the previous treatment. If adverse events occurred in patients being infused at 25 μg/kg/min, the infusions were terminated and the patient received no additional infusions.

[4] = cited from earlier work
[5] = Week 1 (Infusion 1), baseline, N=15
[6] = ATP infusion rate 500-1000 μg/kg/min
[7] = ATP infusion rate ≦100 μg/kg/min

Nc1ncnc2c1ncn2[C@@H]1O[C@H](COP(=O)(O)OP(=O)(O)OP(=O)(O)O)[C@@H](O)[C@H]1O [ATP, adenosine 5′-triphosphate]
C-Reactive Protein, Change from Baseline, Mean [1, 5]: 0.0 mg/dL
C-Reactive Protein, Change from Baseline, Median [1, 5]: 0.0 mg/dL
C-Reactive Protein, Observed Values, Mean [1, 5]: 5.1 mg/dL
C-Reactive Protein, Observed Values, Median [1, 5]: 3.4 mg/dL
Pre-albumin, Change from Baseline, Mean [1, 5]: 0.0 mg/dL
Pre-albumin, Change from Baseline, Median [1, 5]: 0.0 mg/dL
Pre-albumin, Observed Values, Mean [1, 5]: 19.7 mg/dL
Pre-albumin, Observed Values, Median [1, 5]: 18.0 mg/dL
Serum Albumin, Change from Baseline, Mean [1, 5]: 0.0 g/dL
Serum Albumin, Change from Baseline, Median [1, 5]: 0.0 g/dL
Serum Albumin, Observed Values, Mean [1, 5]: 3.3 g/dL
Serum Albumin, Observed Values, Median [1, 5]: 3.4 g/dL
Pre-albumin, Change from Baseline, Mean ([1]; Week 2 (Infusion 2), N=13): -1.2 mg/dL
Pre-albumin, Change from Baseline, Median ([1]; Week 2 (Infusion 2), N=13): 0.0 mg/dL
Pre-albumin, Observed Values, Mean ([1]; Week 2 (Infusion 2), N=13): 19.4 mg/dL
Pre-albumin, Observed Values, Median ([1]; Week 2 (Infusion 2), N=13): 17.0 mg/dL
C-Reactive Protein, Change from Baseline, Mean ([1]; Week 2 (Infusion 2), N=14): 0.1 mg/dL
C-Reactive Protein, Change from Baseline, Median ([1]; Week 2 (Infusion 2), N=14): 0.5 mg/dL
C-Reactive Protein, Observed Values, Mean ([1]; Week 2 (Infusion 2), N=14): 5.0 mg/dL
C-Reactive Protein, Observed Values, Median ([1]; Week 2 (Infusion 2), N=14): 3.3 mg/dL
Serum Albumin, Change from Baseline, Mean ([1]; Week 2 (Infusion 2), N=14): -0.1 g/dL
Serum Albumin, Change from Baseline, Median ([1]; Week 2 (Infusion 2), N=14): 0.0 g/dL
Serum Albumin, Observed Values, Mean ([1]; Week 2 (Infusion 2), N=14): 3.2 g/dL
Serum Albumin, Observed Values, Median ([1]; Week 2 (Infusion 2), N=14): 3.2 g/dL
C-Reactive Protein, Change from Baseline, Mean ([1]; Week 4 (Infusion 4), N=9): 2.5 mg/dL
C-Reactive Protein, Change from Baseline, Median ([1]; Week 4 (Infusion 4), N=9): 1.6 mg/dL
C-Reactive Protein, Observed Values, Mean ([1]; Week 4 (Infusion 4), N=9): 6.6 mg/dL
C-Reactive Protein, Observed Values, Median ([1]; Week 4 (Infusion 4), N=9): 6.1 mg/dL
Pre-albumin, Change from Baseline, Mean ([1]; Week 4 (Infusion 4), N=10): -1.3 mg/dL
Pre-albumin, Change from Baseline, Median ([1]; Week 4 (Infusion 4), N=10): 0.0 mg/dL
Pre-albumin, Observed Values, Mean ([1]; Week 4 (Infusion 4), N=10): 16.5 mg/dL
Pre-albumin, Observed Values, Median ([1]; Week 4 (Infusion 4), N=10): 17.0 mg/dL
Serum Albumin, Change from Baseline, Mean ([1]; Week 4 (Infusion 4), N=11): -0.2 g/dL
Serum Albumin, Change from Baseline, Median ([1]; Week 4 (Infusion 4), N=11): -0.2 g/dL
Serum Albumin, Observed Values, Mean ([1]; Week 4 (Infusion 4), N=11): 3.2 g/dL
Serum Albumin, Observed Values, Median ([1]; Week 4 (Infusion 4), N=11): 3.0 g/dL
C-Reactive Protein, Change from Baseline, Mean ([1]; Week 6 (Infusion 6), N=8): 0.2 mg/dL
C-Reactive Protein, Change from Baseline, Median ([1]; Week 6 (Infusion 6), N=8): 0.0 mg/dL
C-Reactive Protein, Observed Values, Mean ([1]; Week 6 (Infusion 6), N=8): 4.5 mg/dL
C-Reactive Protein, Observed Values, Median ([1]; Week 6 (Infusion 6), N=8): 2.5 mg/dL
Pre-albumin, Change from Baseline, Mean ([1]; Week 6 (Infusion 6), N=8): -7.5 mg/dL
Pre-albumin, Change from Baseline, Median ([1]; Week 6 (Infusion 6), N=8): -4.5 mg/dL
Pre-albumin, Observed Values, Mean ([1]; Week 6 (Infusion 6), N=8): 16.6 mg/dL
Pre-albumin, Observed Values, Median ([1]; Week 6 (Infusion 6), N=8): 16.0 mg/dL
Serum Albumin, Change from Baseline, Mean ([1]; Week 6 (Infusion 6), N=9): -0.1 g/dL
Serum Albumin, Change from Baseline, Median ([1]; Week 6 (Infusion 6), N=9): -0.2 g/dL
Serum Albumin, Observed Values, Mean ([1]; Week 6 (Infusion 6), N=9): 3.2 g/dL
Serum Albumin, Observed Values, Median ([1]; Week 6 (Infusion 6), N=9): 3.1 g/dL
C-Reactive Protein, Change from Baseline, Mean ([1]; Week 8 (Infusion 8), N=6): 3.7 mg/dL
C-Reactive Protein, Change from Baseline, Median ([1]; Week 8 (Infusion 8), N=6): 0.0 mg/dL
C-Reactive Protein, Observed Values, Mean ([1]; Week 8 (Infusion 8), N=6): 9.0 mg/dL
C-Reactive Protein, Observed Values, Median ([1]; Week 8 (Infusion 8), N=6): 4.7 mg/dL
Pre-albumin, Change from Baseline, Mean ([1]; Week 8 (Infusion 8), N=7): -6.3 mg/dL
Pre-albumin, Change from Baseline, Median ([1]; Week 8 (Infusion 8), N=7): -4.0 mg/dL
Pre-albumin, Observed Values, Mean ([1]; Week 8 (Infusion 8), N=7): 19.6 mg/dL
Pre-albumin, Observed Values, Median ([1]; Week 8 (Infusion 8), N=7): 19.0 mg/dL
Serum Albumin, Change from Baseline, Mean ([1]; Week 8 (Infusion 8), N=7): -0.1 g/dL
Serum Albumin, Change from Baseline, Median ([1]; Week 8 (Infusion 8), N=7): -0.1 g/dL
Serum Albumin, Observed Values, Mean ([1]; Week 8 (Infusion 8), N=7): 3.3 g/dL
Serum Albumin, Observed Values, Median ([1]; Week 8 (Infusion 8), N=7): 3.4 g/dL
C-Reactive Protein, Change from Baseline, Mean ([1]; Week 10 (Follow-up), N=4): 6.0 mg/dL
C-Reactive Protein, Change from Baseline, Median ([1]; Week 10 (Follow-up), N=4): -0.7 mg/dL
C-Reactive Protein, Observed Values, Mean ([1]; Week 10 (Follow-up), N=4): 11.2 mg/dL
C-Reactive Protein, Observed Values, Median ([1]; Week 10 (Follow-up), N=4): 7.0 mg/dL
Pre-albumin, Change from Baseline, Mean ([1]; Week 10 (Follow-up), N=6): -8.3 mg/dL
Pre-albumin, Change from Baseline, Median ([1]; Week 10 (Follow-up), N=6): -1.0 mg/dL
Pre-albumin, Observed Values, Mean ([1]; Week 10 (Follow-up), N=6): 20.2 mg/dL
Pre-albumin, Observed Values, Median ([1]; Week 10 (Follow-up), N=6): 18.5 mg/dL
Serum Albumin, Change from Baseline, Mean ([1]; Week 10 (Follow-up), N=6): 0.0 g/dL
Serum Albumin, Change from Baseline, Median ([1]; Week 10 (Follow-up), N=6): -0.1 g/dL
Serum Albumin, Observed Values, Mean ([1]; Week 10 (Follow-up), N=6): 3.6 g/dL
Serum Albumin, Observed Values, Median ([1]; Week 10 (Follow-up), N=6): 3.7 g/dL
C-Reactive Protein, Change from Baseline, Mean ([1]; Week 13 (Follow-up), N=5): 5.3 mg/dL
C-Reactive Protein, Change from Baseline, Median ([1]; Week 13 (Follow-up), N=5): 0.0 mg/dL
C-Reactive Protein, Observed Values, Mean ([1]; Week 13 (Follow-up), N=5): 9.1 mg/dL
C-Reactive Protein, Observed Values, Median ([1]; Week 13 (Follow-up), N=5): 0.4 mg/dL
Pre-albumin, Change from Baseline, Mean ([1]; Week 13 (Follow-up), N=5): -8.4 mg/dL
Pre-albumin, Change from Baseline, Median ([1]; Week 13 (Follow-up), N=5): 0.0 mg/dL
Pre-albumin, Observed Values, Mean ([1]; Week 13 (Follow-up), N=5): 22.4 mg/dL
Pre-albumin, Observed Values, Median ([1]; Week 13 (Follow-up), N=5): 24.0 mg/dL
Serum Albumin, Change from Baseline, Mean ([1]; Week 13 (Follow-up), N=6): -0.0 g/dL
Serum Albumin, Change from Baseline, Median ([1]; Week 13 (Follow-up), N=6): -0.1 g/dL
Serum Albumin, Observed Values, Mean ([1]; Week 13 (Follow-up), N=6): 3.5 g/dL
Serum Albumin, Observed Values, Median ([1]; Week 13 (Follow-up), N=6): 3.5 g/dL
levels of C-Reactive Protein ([1]; after 13 weeks): continued to increase
levels of pre-albumin ([1]; after 13 weeks): decreased
serum albumin levels ([1]; after 13 weeks): stabilize and prevent a drop
3 month stability data ([2]; 3 months under routine storage conditions): remains stable at 3 months under
15 months stability testing ([2]; refrigerated ATP (5° C.)): 99.7 % of label
stability of the final ATP solutions ([2]; room temperature, infusion solution 8 mg/ml): at least 96 hours
Lab. Toxicity ([3]; Patient 501): Nil noted
Clin. Toxicity and CTC-Grade ([3]; Patient 501, Ca Colon, 50 & 75 μg/kg/min, Weeks 1&2): I Flushing
Lab. Toxicity ([3]; Patient 502): Nil noted
Clin. Toxicity and CTC-Grade ([3]; Patient 502, Mesothelioma, 50, 75, & 100 μg/kg/min, Weeks 1-8): I Chest D/Dysp; also recorded: I Flushing; also recorded: I Anxiety
Lab. Toxicity: Hb decreased, Grade II ([3]; Patient 503): Hb 8.0 g/dl
Clin. Toxicity and CTC-Grade ([3]; Patient 503, Prostate, 50, 75, & 100 μg/kg/min, Weeks 1-8): II Confusion -
Lab. Toxicity ([3]; Patient 504): Nil noted
Lab. Toxicity ([3]; Patient 505): Nil noted
Clin. Toxicity and CTC-Grade ([3]; Patient 505, Melanoma, 50, 75 & 100 μg/kg/min, Weeks 1-8): I Flushing; also recorded: AVBlock/CHB
Lab. Toxicity: bilirubin and LFT's - disease progression ([3]; Patient 506): Increasing
Clin. Toxicity and CTC-Grade ([3]; Patient 506, Ca Colon, 50 & 75 & 100 μg/kg/min, Weeks 1-6): I Headache
Lab. Toxicity ([3]; Patient 507): Nil noted
Clin. Toxicity and CTC-Grade ([3]; Patient 507, Ca Prostate, 50, 75 & 100 μg/kg/min, Weeks 1-8): I Nasal stuffiness; also recorded: II increasing pain -
Lab. Toxicity ([3]; Patient 508, 50 μg/kg/min, Week 1): Nil noted
clinical toxicities ([3]; Patient 508, first infusion at 50 μg/kg/min): No clinical toxicities were noted
Clin. Toxicity and CTC-Grade ([3]; Patient 509, Renal cell carcinoma, 50, 75 & 100 μg/kg/min, Weeks 1-8): I anxiety; also recorded: I nausea; also recorded: I vomiting
Lab. Toxicity: AST/Alk Phos increase ([3]; Patient 509, at FU): At FU grade I
patients tolerating the maximum allowable dose of 100 μg/kg/min ([3]; continuous 8 hour intravenous infusion, first nine patients): seven of nine
tolerability in terminal patients ([3]; seen in patient 506): well tolerated
Cardiac Output [4, 6]: Increase
Heart Rate [4, 6]: Increase
Pulmonary Arterial Pressure [4, 6]: Decrease
Pulmonary Vascular Resistance [4, 6]: Decrease
Systemic Arterial Pressure [4, 6]: Decrease
Systemic Vascular Resistance [4, 6]: Decrease
Cardiac Output [4, 7]: Small Increase
Heart Rate [4, 7]: do not affect; also recorded: No Change
Pulmonary Arterial Pressure [4, 7]: No Change
Pulmonary Vascular Resistance [4, 7]: Decrease
Systemic Arterial Pressure [4, 7]: do not affect; also recorded: No Change
Systemic Vascular Resistance [4, 7]: Small Decrease
